The test system of data set [1] is OVX-induced bone resorption and bone turnover. In words: Dynamic histomorphometry of the proximal tibial metaphysis in OVX rats. Format: in vivo, Sprague-Dawley female rats. The settings on record: daily gavage 28 days, EE 0.03 mg/kg, LAS 0.1 mg/kg. The procedure: (§1) Sprague-Dawley female rats at 5.5 months of age were used in this study. Rats underwent either sham-operation or bilateral ovariectomy. Beginning at 1 day post-surgery, the rats were treated (daily gavage) with vehicle, 17α-ethanyl estradiol (EE) alone, lasofoxifene (LAS) alone, or combination of both EE and LAS for 28 days, according to the following protocol.
(§2) There were 10 rats in each group. All rats received subcutaneous injections of the fluorescent marker, calcein, at 10 mg/kg on days 12 and 2 before necropsy in order to determine dynamic bone changes. After 28 days of treatment, the rats were necropsy, and the following endpoints were determined. • Body weight • Total serum cholesterol (TSC) • Uterine wet weight • Peripheral quantitative computerized tomography (pQCT). A pQCT X-ray machine (Stratec XCT Reasearch M, Norland Medical Systems, Fort Atkinson, Wis.) with version 5.40 was used to scan femurs from this study. A cross sectional slice 1 mm in thickness was taken of the femoral metaphysis approximately 5 mm proximal to the distal end. A voxel size of 0.10 mm was used, with dimensions of 100×100×1000 micometers. Cortical bone was defined and analyzed using contour mode 2 and cortical mode 4. The cortical shell was distinguished from soft tissue with an outer threshold setting of 349 mg/cm^3. Furthermore, cortical bone along the endocortical surface was determined with an inner threshold of 529 mg/cm^3. In order to determine the presence of trabecular bone, peel mode 4 was used. (Sub)Cortical bone was distinguished from cancellous bone with a threshold setting of 655 mg/cm^3. An additional concentric peel was also used to eliminate (sub)cortical bone from any analyses. For trabecular and cortical bone, content, density and area were determined. […] Tibiae were removed upon necropsy and removed of tissue. The proximal portion of the tibia was fixed in 70% ethanol, dehydrated in graded concentrations of ethanol, defatted in acetone, and embedded in methyl methacrylate. Four and ten μm sections were taken to determine several histomorphometric parameters with an Image Analysis System (Osteomeasure, Inc., Atlanta, Ga.). The 10 μm remained unstained while the 4 μm section was stained with modified Masson's Trichrome stain (5,6,7). Statistics
(§3) Statistics were calculated using StatView 4.0 software (Abacus Concepts, Inc., Berkeley, Calif.). Fisher's PLSD was used to determine the differences between each group. A p value<0.05 was considered a significant difference.

Data set [2] concerns uterine cancer cell lines. The settings on record: previously reported; cited from earlier work.
The test system of the next data set is uterus of OVX rats. The data set can be described thus: Uterine wet weight in OVX rats. The procedure:
as §1
(§4) There were 10 rats in each group. All rats received subcutaneous injections of the fluorescent marker, calcein, at 10 mg/kg on days 12 and 2 before necropsy in order to determine dynamic bone changes. After 28 days of treatment, the rats were necropsy, and the following endpoints were determined. • Body weight • Total serum cholesterol (TSC) • Uterine wet weight • Peripheral quantitative computerized tomography (pQCT). A pQCT X-ray machine (Stratec XCT Reasearch M, Norland Medical Systems, Fort Atkinson, Wis.) with version 5.40 was used to scan femurs from this study. […] Cortical bone was defined and analyzed using contour mode 2 and cortical mode 4. […] Furthermore, cortical bone along the endocortical surface was determined with an inner threshold of 529 mg/cm^3. […] For trabecular and cortical bone, content, density and area were determined. […]
(§5) Statistics were calculated using StatView 4.0 software (Abacus Concepts, Inc., Berkeley, Calif.). […]

Data set [3] in a line: Total serum cholesterol (TSC) in OVX rats. In kind it is in vivo, Sprague-Dawley female rats. The settings on record: daily gavage 28 days, EE 0.03 mg/kg, LAS 0.1 mg/kg. As to the method:
as §1, §4, §5

In a further data set the target is estrogen receptor α (Homo sapiens, UniProt P03372). To be noted: previously reported; similar to the binding of estradiol; cited from earlier work.
The next data set has as its target estrogen receptor β (Homo sapiens, UniProt Q92731). To be noted: previously reported; similar to the binding of estradiol; cited from earlier work.
A further data set deals with breast cancer. The settings on record: previously reported; cited from earlier work.
A further data set deals with OVX-induced bone loss. In words: pQCT of the distal femur in OVX rats. In kind it is in vivo, Sprague-Dawley female rats. The settings on record: for pQCT cortical content, distal femur / pQCT total density, distal femur: daily gavage 28 days, EE 0.03 mg/kg, LAS 0.1 mg/kg; for OVX-induced bone loss: fully efficacious doses (EE 0.03 mg/kg, LAS 0.1 mg/kg), 28 days. As to the method:
as §1, §2, §3

Entries after “also recorded” stand apart in the source; their conditions may differ.

estrogen receptor β, sequence (Q92731 whole entry): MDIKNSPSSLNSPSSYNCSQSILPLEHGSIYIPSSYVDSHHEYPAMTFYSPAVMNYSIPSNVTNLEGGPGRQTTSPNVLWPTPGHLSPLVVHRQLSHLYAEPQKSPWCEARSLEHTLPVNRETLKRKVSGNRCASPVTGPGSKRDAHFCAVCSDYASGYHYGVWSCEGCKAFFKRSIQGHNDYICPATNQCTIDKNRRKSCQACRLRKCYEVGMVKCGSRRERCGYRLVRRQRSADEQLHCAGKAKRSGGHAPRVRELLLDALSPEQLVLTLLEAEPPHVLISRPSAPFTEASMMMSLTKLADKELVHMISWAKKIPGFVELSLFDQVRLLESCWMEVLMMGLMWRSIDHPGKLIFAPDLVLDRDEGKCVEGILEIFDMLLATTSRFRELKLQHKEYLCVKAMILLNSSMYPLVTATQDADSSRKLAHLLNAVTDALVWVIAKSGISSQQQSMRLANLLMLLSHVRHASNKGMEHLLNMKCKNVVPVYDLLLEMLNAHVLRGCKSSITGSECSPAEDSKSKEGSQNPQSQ
estrogen receptor α, sequence (P03372 whole entry): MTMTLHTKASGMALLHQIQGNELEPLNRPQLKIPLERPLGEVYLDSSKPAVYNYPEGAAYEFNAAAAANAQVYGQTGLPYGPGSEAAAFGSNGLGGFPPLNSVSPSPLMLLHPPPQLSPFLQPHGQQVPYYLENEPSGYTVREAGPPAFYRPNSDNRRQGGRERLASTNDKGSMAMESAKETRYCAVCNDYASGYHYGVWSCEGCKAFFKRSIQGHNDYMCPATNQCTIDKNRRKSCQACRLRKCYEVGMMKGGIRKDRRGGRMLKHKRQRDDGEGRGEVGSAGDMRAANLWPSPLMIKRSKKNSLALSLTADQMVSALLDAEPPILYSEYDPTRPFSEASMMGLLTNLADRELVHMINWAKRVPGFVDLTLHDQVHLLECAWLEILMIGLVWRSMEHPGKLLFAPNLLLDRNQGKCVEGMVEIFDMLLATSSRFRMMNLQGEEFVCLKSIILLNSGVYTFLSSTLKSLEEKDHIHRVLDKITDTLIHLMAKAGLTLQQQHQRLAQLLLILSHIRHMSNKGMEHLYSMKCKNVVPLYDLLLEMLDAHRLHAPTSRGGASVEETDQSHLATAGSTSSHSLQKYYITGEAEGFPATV

As to `O=C(O)C(O)C(O)C(=O)O.Oc1ccc2c(c1)CC[C@H](c1ccccc1)[C@@H]2c1ccc(OCCN2CCCC2)cc1` [LAS, (−)-cis-6-phenyl-5-[4-(2-pyrrolidin-1-yl-ethoxy)-phenyl]-5,6,7,8-tetrahydro-naphthalene-2-ol, tartrate salt], in data set [1], the “bone formation rate (BFR/BS)” value is listed as “completely prevented these changes”, the “mineral apposition rate (MAR)” value is listed as “completely prevented these changes”, the “mineralizing surface (MS/BS)” value is “completely prevented these changes” and the “osteoclast number (Oc.N/BS)” value was “completely prevented these changes”. Besides, in data set [1], the “osteoclast surface (Oc.S/BS)” value is recorded as “completely prevented these changes”. For the same compound, in data set [2], the “proliferation of uterine cancer cell lines in vitro” value is on record as “antagonizes the proliferation”. In addition, in the data set on uterus of OVX rats (EE 0.03 mg/kg + LAS 0.1 mg/kg, 28 days, tartrate salt), the “effect of LAS on the uterine effects of EE on co-administration” value is listed as “blocked the agonistic effects of EE in the uterus of OVX rats; also recorded: antagonized the uterine hypertrophy effects induced by EE”. The “total serum cholesterol (TSC)” value in data set [3] (tartrate salt) was “prevented the OVX-induced increase in TSC; also recorded: significantly decreased TSC to a level below both sham controls and rats treated with EE”. Moreover, on estrogen receptor α, the “binding to estrogen receptor α” value was “bound selectively and with high affinity”. Further, the “binding to estrogen receptor β” value on estrogen receptor β was “bound selectively and with high affinity”. Also, the “proliferation of breast cancer in vivo” value in the data set on breast cancer is “antagonizes the proliferation”. Moreover, in the data set on OVX-induced bone loss, the “pQCT cortical content, distal femur” value is reported as “completely prevented the OVX-induced decrease”; the “pQCT total density, distal femur” value is “completely prevented the OVX-induced decrease”; the OVX-induced bone loss entry is recorded as “completely prevented OVX-induced bone loss”.
As for `C#C[C@]1(O)CC[C@H]2[C@@H]3CCc4cc(O)ccc4[C@H]3CC[C@@]21C` [EE, 17α-ethanyl estradiol, reference compound], in data set [1], the “bone formation rate (BFR/BS)” value was “completely prevented these changes”, the “mineral apposition rate (MAR)” value is given as “completely prevented these changes”, the “mineralizing surface (MS/BS)” value is on record as “completely prevented these changes” and the “osteoclast number (Oc.N/BS)” value is reported as “completely prevented these changes”. Also, the “osteoclast surface (Oc.S/BS)” value in data set [1] was “completely prevented these changes”. The uterine wet weight entry in the data set with uterus of OVX rats (daily gavage 28 days, EE 0.03 mg/kg, LAS 0.1 mg/kg) was “maintained the uterine wet weight at the level of sham controls”. The “total serum cholesterol (TSC)” value in data set [3] is “completely prevented this increase”. Also, in the data set on OVX-induced bone loss, the “pQCT cortical content, distal femur” value was “completely prevented the OVX-induced decrease”; the “pQCT total density, distal femur” value was “completely prevented the OVX-induced decrease”; the OVX-induced bone loss entry is “completely prevented OVX-induced bone loss”.
